Laboratory results from ChEMBL document CHEMBL1201862, “PubChem BioAssay data set” (2004).
Calls of active or inactive are those of the source.

Key:
[1] = molecular target: G-protein coupled receptor 35 (Homo sapiens, UniProt Q9HC97); experiment: GPR35 antagonists blocking zaprinast-driven arrestin recruitment, primary screen, imaging, U2OS, beta-arrestin-GFP, zaprinast agonist (AID 2058); assay type: functional;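 further: antagonist potency meaning inhibition of agonist-induced arrestin redistribution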
Chain of G-protein coupled receptor 35 (Q9HC97 whole entry): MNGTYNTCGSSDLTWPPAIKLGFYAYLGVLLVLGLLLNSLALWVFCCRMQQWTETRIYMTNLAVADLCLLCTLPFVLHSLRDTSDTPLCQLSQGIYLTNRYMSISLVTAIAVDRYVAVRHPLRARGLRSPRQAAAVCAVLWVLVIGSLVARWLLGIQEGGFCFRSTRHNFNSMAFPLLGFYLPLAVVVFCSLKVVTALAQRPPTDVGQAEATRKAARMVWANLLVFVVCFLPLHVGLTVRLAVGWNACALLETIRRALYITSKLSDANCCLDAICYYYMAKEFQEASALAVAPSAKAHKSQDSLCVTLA

[2] = cytotoxicity in HEK-293T cells, dose response, cytotoxicity control for TCR NF-kB inhibitor project, luminescence, T-cell screen hits (AID 489026); assay type: functional, cell-based;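 further: cells exposed to compound about 14 hours before the viability readout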
[3] = molecular target: T1, Microphthalmia-associated transcription factor (Homo sapiens, UniProt O75030); experiment: TRPM1 promoter luciferase signal decrease, dose response, MITF inhibitor project, cell-based, SK-MEL-5, cherry-picked, set 3 (AID 493073); assay type: functional
T1 sequence (O75030 whole entry): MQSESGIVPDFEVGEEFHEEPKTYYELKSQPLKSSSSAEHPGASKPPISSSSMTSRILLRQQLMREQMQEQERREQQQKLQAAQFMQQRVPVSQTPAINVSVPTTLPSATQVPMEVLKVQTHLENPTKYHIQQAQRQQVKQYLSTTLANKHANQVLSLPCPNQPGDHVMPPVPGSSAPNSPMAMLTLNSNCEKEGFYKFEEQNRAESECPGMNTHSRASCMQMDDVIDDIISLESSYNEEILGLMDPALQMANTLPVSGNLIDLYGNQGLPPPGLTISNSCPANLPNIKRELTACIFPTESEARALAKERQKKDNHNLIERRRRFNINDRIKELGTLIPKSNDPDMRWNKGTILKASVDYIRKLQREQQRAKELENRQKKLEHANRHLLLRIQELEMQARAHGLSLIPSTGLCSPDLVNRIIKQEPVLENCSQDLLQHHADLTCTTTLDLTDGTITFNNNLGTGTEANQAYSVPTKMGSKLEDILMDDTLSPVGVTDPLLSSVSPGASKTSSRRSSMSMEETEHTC

A-375 = experiment: A375 melanoma cell viability reduction, dose response, counter-screen for MITF modulator project, cherry-pick samples, set 2 (AID 540335); assay type: functional, cell-based; conditions: Homo sapiens
[4] = molecular target: COUP transcription factor 2 (Homo sapiens, UniProt P24468); experiment: Luminescence-based cell-based high throughput dose response assay to identify inhibitors of COUP-TFII (NR2F2).; assay type: functional;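 further: HEK293 cells transiently cotransfected with COUP-TFII expression vector and reporter; luciferase reporter luminescence driven by COUP-TFII from the pX2-168 reporter plasmid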
Chain of COUP transcription factor 2 (P24468 whole entry): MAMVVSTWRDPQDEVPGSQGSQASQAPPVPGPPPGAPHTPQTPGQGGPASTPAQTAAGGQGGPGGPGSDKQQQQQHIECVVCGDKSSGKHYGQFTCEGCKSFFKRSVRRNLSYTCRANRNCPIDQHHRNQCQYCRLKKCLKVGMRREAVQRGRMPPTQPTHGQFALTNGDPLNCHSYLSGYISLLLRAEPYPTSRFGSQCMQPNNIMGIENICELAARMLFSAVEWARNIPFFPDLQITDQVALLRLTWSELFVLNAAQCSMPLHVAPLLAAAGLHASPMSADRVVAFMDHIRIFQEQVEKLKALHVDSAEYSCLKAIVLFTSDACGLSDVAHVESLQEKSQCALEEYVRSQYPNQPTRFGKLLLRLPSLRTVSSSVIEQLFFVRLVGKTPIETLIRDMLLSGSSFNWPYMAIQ

[5] = test system: Streptococcus sp. 'group A'; experiment: growth inhibition of control SK(-) GAS strain, dose response, counter-screen for streptokinase expression inhibitor project, luminescence, kanamycin, BacTiterGlo, confirmation (AID 1900); assay type: functional, organism-based
Streptokinase A = molecular target: T2, Streptokinase A (Streptococcus pyogenes serotype M1, UniProt P10520); experiment: S. pyogenes streptokinase expression inhibitors, potency, dose response, plasminogen activation absorbance, OD405 (AID 1914); assay type: functional, Streptococcus pyogenes M1 GAS;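 further: secreted streptokinase activity via plasminogen activation per viability signal from cell pellet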
T2 sequence (P10520 whole entry): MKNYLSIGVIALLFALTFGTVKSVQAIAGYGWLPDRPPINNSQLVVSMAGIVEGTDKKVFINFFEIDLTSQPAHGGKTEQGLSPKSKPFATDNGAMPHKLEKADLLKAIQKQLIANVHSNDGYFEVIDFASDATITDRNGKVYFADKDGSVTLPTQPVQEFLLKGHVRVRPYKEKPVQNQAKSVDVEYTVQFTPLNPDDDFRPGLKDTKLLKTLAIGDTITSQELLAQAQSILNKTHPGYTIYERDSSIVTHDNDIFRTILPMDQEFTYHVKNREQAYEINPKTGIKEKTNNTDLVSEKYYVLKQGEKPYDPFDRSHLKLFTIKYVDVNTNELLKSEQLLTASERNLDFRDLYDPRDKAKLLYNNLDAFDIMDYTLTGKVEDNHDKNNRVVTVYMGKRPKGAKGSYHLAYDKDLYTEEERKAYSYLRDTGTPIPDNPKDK

Streptococcus = experiment: Group A Streptococcus viability loss, dose response, counter-screen for streptokinase expression inhibitor project, luminescence, BacTiterGlo (AID 1915); assay type: functional, organism-based;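 further: potency for reduction of bacterial viability or growth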
[6] = molecular target: Disintegrin and metalloproteinase domain-containing protein 17 (Homo sapiens, UniProt P78536); experiment: exosite inhibitors of ADAM17, dose response, biochemical (AID 743260)
Chain of Disintegrin and metalloproteinase domain-containing protein 17 (P78536 whole entry, the tested form may be a part): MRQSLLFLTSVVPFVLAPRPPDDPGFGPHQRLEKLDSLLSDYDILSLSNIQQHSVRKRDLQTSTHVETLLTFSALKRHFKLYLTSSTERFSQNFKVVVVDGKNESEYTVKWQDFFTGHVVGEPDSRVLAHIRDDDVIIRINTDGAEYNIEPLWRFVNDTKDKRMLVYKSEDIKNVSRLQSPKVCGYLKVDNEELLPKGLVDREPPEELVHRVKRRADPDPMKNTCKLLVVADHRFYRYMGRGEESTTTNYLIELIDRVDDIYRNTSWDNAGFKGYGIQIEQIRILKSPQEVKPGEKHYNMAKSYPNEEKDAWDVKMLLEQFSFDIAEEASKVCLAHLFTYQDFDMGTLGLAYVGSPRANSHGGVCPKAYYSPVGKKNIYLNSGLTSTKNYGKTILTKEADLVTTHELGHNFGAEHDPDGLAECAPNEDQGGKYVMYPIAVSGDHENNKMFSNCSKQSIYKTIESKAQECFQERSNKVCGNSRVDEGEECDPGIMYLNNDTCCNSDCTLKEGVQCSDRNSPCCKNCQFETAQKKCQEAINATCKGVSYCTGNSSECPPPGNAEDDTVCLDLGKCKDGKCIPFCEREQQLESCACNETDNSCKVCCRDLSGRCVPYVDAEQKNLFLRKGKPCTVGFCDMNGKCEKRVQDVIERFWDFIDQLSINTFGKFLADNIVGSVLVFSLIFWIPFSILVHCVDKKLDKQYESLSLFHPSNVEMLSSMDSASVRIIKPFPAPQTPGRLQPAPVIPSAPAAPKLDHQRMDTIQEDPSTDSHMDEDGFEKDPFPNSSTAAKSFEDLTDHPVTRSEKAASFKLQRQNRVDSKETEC

[7] = ADAM10 protease inhibitors, dose response, selectivity assay for ADAM17 exosite inhibitor project, biochemical, FRET peptide substrate, recombinant human ADAM10 (AID 743259);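 further: ADAM10 enzyme cleaving a FRET peptide substrate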
[8] = THP-1 cell cytotoxicity, dose response, cytotoxicity control for Vif-APOBEC3G degradation inhibitor project, THP-1 cells (AID 1117359); assay type: functional; conditions: Human immunodeficiency virus 1, THP-1
[9] = inhibitors of firefly luciferase expression or activity, dose response, H4 neuroglioma cells, luminescence (AID 1990); assay type: functional, cell-based
[10] = Luminescence Cell-Based Dose Response HTS to Identify Inhibitors of 5'UTR Stem-Loop Driven Prion Protein mRNA Translation in H4 Neuroglioblastoma Cells. [Related pubchem assays: 1827 (Project Summary), 1813 (Primary HTS)]; assay type: functional
[11] = inhibitors of SNCA 5'UTR-driven reporter translation, confirmation, H4 neuroglioma cells, luminescence (AID 1988); assay type: functional, cell-based
Cytochrome P450 2D6 = Cytochrome P450 2D6 (Homo sapiens, UniProt P10635);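 further: CYP2D6 member of a cytochrome P450 panel assay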
Chain of Cytochrome P450 2D6 (P10635 whole entry): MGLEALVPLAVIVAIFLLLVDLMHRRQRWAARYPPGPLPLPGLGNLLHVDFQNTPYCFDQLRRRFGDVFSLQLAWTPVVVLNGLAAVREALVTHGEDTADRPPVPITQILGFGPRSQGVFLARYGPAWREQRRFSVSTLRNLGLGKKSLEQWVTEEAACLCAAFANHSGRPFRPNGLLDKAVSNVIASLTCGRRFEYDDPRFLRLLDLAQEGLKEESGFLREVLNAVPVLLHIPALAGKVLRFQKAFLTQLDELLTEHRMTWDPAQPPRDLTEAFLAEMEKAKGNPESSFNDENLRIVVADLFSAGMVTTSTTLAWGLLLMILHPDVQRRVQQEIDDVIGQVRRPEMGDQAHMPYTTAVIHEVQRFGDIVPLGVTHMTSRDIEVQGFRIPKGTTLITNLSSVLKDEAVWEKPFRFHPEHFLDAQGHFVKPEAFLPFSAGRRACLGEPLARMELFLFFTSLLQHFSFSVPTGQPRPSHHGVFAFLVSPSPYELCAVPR

Beta-lactamase [12] = molecular target: Beta-lactamase (Salmonella choleraesuis (strain SC-B67), UniProt Q5J463); experiment: Epi-absorbance-based counterscreen for selective VIM-2 inhibitors: dose response biochemical high throughput screening assay to identify inhibitors of TEM-1 serine-beta-lactamase.
Chain of Beta-lactamase (Salmonella choleraesuis (strain SC-B67), UniProt Q5J463) (Q5J463 whole entry): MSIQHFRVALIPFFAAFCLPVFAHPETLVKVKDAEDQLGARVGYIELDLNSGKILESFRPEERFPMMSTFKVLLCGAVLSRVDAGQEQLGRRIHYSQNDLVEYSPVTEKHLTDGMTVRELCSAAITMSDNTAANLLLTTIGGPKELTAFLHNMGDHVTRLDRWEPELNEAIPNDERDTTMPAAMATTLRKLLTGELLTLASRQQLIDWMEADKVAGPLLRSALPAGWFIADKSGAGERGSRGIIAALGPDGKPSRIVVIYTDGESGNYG

Beta-lactamase [13] = molecular target: T3, Beta-lactamase (Pseudomonas aeruginosa, UniProt Q79MP6); experiment: IMP-1 metallo-beta-lactamase inhibitors, dose response, selectivity assay for VIM-2 inhibitor project, biochemical, epi-absorbance (AID 1920)
T3 sequence (Q79MP6 whole entry): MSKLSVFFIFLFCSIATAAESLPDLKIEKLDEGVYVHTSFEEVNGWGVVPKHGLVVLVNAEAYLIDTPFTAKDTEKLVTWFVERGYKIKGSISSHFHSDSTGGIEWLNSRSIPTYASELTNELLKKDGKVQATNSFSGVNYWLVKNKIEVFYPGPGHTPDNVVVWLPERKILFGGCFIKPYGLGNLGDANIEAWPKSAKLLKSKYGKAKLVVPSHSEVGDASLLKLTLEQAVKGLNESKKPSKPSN

Beta-lactamase [14] = molecular target: T3, Beta-lactamase; experiment: […] counterscreen for selective VIM-2 inhibitors: dose response biochemical high throughput screening assay to identify inhibitors of IMP-1 metallo-beta-lactamase.
[15] = molecular target: NAD-dependent protein deacylase sirtuin-5, mitochondrial (Homo sapiens, UniProt Q9NXA8); experiment: SIRT5 desuccinylase inhibitors, dose response, biochemical, fluorescence imaging, cherry-pick, set 5 (AID 720591);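 further: desuccinylation of succinyl peptide AMC substrate read as fluorescence after trypsin release; potency of inhibitors that lower fluorescence and may act on trypsin instead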
Chain of NAD-dependent protein deacylase sirtuin-5, mitochondrial (Q9NXA8 whole entry): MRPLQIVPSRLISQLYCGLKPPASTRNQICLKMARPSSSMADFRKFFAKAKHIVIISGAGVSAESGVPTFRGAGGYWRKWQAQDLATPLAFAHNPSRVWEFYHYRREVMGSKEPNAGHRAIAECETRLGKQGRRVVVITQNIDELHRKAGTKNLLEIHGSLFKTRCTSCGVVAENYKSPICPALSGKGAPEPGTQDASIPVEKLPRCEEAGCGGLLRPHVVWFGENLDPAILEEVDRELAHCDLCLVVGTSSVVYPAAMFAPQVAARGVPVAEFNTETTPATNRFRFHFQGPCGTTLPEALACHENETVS

[16] = molecular target: Heat shock protein HSP 90-alpha (Homo sapiens, UniProt P07900); experiment: Luminescence-based dose response biochemical high throughput screening assay for inhibitors of the Heat Shock Protein 90 (HSP90). [Related pubchem assays: 1831 (Summary AID.), 1846 (Confirmation screen.), 1789 (Primary screen.)]
Galanin receptor type 3 = Galanin receptor type 3 (Homo sapiens, UniProt O60755); experiment: Fluorescence-based cell-based primary high throughput dose response assay to identify antagonists of the Galanin Receptor 3 (GalR3).; assay type: functional
Chain of Galanin receptor type 3 (O60755 whole entry): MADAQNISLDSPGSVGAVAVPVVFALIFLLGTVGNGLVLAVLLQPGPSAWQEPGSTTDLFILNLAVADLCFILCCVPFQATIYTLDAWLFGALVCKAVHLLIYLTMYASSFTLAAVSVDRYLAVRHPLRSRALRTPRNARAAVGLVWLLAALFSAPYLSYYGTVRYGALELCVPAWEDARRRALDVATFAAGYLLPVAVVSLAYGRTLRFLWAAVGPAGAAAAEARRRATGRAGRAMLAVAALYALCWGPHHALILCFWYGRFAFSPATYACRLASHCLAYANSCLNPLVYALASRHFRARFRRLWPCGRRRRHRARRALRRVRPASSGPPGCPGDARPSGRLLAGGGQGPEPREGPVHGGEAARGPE

cells [17] = assay type: functional, cell-based; conditions: HEK-CNG
[18] = molecular target: Protein-tyrosine kinase 2-beta (Homo sapiens, UniProt Q14289);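 further: potency of inhibitors of PYK2 kinase phosphorylation of poly-GT substrate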
Chain of Protein-tyrosine kinase 2-beta (Q14289 whole entry): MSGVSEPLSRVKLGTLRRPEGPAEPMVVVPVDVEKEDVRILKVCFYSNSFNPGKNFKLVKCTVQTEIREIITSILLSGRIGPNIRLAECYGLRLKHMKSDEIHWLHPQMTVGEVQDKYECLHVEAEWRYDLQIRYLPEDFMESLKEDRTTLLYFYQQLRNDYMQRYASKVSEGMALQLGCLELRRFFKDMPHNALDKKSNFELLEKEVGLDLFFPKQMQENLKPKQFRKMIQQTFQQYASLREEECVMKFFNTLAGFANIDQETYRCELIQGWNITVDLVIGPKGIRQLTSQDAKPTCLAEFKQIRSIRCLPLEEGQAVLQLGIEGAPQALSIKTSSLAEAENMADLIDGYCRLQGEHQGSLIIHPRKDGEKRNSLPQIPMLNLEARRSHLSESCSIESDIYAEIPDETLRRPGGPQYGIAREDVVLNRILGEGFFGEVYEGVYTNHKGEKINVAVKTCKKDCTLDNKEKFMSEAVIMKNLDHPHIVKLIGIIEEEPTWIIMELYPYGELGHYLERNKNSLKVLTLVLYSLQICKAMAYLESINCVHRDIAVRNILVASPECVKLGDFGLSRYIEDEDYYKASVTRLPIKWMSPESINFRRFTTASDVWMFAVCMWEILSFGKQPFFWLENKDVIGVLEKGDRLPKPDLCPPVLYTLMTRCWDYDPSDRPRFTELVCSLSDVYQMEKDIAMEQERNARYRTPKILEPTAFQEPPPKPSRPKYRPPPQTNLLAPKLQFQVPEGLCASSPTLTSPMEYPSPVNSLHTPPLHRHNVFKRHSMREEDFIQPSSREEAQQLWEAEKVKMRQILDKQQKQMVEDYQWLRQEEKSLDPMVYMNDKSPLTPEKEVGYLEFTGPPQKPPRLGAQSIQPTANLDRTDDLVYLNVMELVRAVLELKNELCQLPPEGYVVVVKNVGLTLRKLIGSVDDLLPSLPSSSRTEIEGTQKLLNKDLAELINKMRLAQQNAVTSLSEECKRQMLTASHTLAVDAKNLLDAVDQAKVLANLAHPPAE

[19] = human group III sPLA2 inhibitors, dose response, biochemical, QFRET, IC50 (AID 743457);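 further: green fluorescence rise as the enzyme cleaves BODIPY PC-A2 in liposomes; potency for inhibition of the enzyme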
cells [20] = assay type: functional, cell-based
[21] = molecular target: T4, Trace amine-associated receptor 1 (Homo sapiens, UniProt Q96RJ0); experiment: Fluorescence-based cell-based high throughput dose response assay to identify agonists of the human trace amine associated receptor 1 (TAAR1).; assay type: functional
T4 sequence (Q96RJ0 whole entry): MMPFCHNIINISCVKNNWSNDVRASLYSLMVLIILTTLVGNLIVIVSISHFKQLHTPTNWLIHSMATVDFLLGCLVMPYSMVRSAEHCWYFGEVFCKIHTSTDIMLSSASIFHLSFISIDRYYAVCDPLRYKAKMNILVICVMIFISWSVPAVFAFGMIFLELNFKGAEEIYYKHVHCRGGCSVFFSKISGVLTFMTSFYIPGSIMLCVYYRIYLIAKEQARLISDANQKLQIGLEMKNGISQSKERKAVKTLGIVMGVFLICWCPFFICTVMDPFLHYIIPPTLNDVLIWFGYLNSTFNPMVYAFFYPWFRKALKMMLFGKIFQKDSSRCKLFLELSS

[22] = molecular target: T4, Trace amine-associated receptor 1; experiment: Counterscreen for agonists of the human trace amine associated receptor 1 (hTAAR1): Fluorescence-based cell-based high throughput dose response assay to identify hTAAR1 agonist that also desensitize TAAR1 receptor response.; assay type: functional
cells [23] = assay type: functional, cell-based; remark: listed apart in the source

CC1=CC(=Cc2sc3ccccc3[n+]2C)C=C(C)N1CC1CCCO1 (stereo not drawn)
IC50 [1]: 1.44 µM (active)
IC50 [2]: > 80 µM (inactive)
AC50 [3]: 1.82 µM (active)
AC50 (A-375): 24.4 µM (active)
IC50 [4]: 4.97 µM (active)

COc1ccc(C2CC(O)(c3ccccc3)Oc3c(C)ccc(C)c32)cc1 (stereo not drawn)
EC50 [5]: > 150 µM (not active)
EC50 (Streptokinase A): > 150 µM (not active)
EC50 (Streptococcus): > 150 µM (not active)
IC50 [6]: > 69.5 µM (inactive)
IC50 [7]: 12.7 µM (inactive)
CC50 [8]: 28.5 µM (active)

CC(Oc1ccc(Cl)cc1)c1ccnn1S(=O)(=O)c1ccccc1 (stereo not drawn)
EC50 [9]: 17.4 µM (active)
EC50 [10]: > 120 µM (not active)
EC50 [11]: > 120 µM (not active)
IC50 [6]: > 69.5 µM (inactive)
IC50 [7]: 66.4 µM (inactive)
AC50 (Cytochrome P450 2D6): 14.1 µM (inconclusive)

COc1ccccc1-c1n[nH]c(=S)n1Cc1ccco1
IC50 (Beta-lactamase [12]): > 59.6 µM (inactive)
IC50 (Beta-lactamase [13]): > 59.6 µM (inactive)
IC50 (Beta-lactamase [14]): > 59.6 µM (inactive)

C=CCSc1nnc(NC(=O)c2cn(CC)c3nc(C)ccc3c2=O)s1
AC50 [15]: > 30 µM (inactive)

COCC(C)n1c(C)cc(C(=O)Cn2nc(C(=O)O)c3ccccc3c2=O)c1C (stereo not drawn)
IC50 [16]: 11.4 µM (not active)

COc1cccc2[nH]c3c(N4CCC(C)CC4)ncnc3c12
IC50 (Galanin receptor type 3): 0.379 µM (active)
EC50 (cells [17]): > 29.9 µM (inactive)

O=P(O)(O)c1ccccc1OCCCCCOc1ccccc1P(=O)(O)O
IC50 (Beta-lactamase [12]): > 59.6 µM (inactive)
IC50 (Beta-lactamase [13]): > 59.6 µM (inactive)
IC50 (Beta-lactamase [14]): > 59.6 µM (inactive)
IC50 [18]: 2.23 µM (active)

COc1ccccc1N=C(S)NNC(=O)c1nn(C)cc1Cl
IC50 [19]: > 122 µM (inactive)

O=c1cc(Nc2ccc3c(c2)OCO3)[nH]c(=O)n1-c1ccc(Br)cc1
IC50 (cells [20]): > 29.9 µM (inactive)
EC50 [21]: 5.11 µM (active)
IC50 [22]: 21.9 µM (inactive)
EC50 (cells [23]): > 29.9 µM (inactive)
